{"source": "patent US20250171431A1", "about": "“HETEROCYCLIC INHIBITORS OF IGF-1R FOR TREATMENT OF DISEASE” (HORIZON THERAPEUTICS IRELAND DAC, priority 2023, published 2025)"}
{"molecular_target": "IGF-1R (Homo sapiens (Human), UniProt P08069)", "sequence (P08069 31-1367)": "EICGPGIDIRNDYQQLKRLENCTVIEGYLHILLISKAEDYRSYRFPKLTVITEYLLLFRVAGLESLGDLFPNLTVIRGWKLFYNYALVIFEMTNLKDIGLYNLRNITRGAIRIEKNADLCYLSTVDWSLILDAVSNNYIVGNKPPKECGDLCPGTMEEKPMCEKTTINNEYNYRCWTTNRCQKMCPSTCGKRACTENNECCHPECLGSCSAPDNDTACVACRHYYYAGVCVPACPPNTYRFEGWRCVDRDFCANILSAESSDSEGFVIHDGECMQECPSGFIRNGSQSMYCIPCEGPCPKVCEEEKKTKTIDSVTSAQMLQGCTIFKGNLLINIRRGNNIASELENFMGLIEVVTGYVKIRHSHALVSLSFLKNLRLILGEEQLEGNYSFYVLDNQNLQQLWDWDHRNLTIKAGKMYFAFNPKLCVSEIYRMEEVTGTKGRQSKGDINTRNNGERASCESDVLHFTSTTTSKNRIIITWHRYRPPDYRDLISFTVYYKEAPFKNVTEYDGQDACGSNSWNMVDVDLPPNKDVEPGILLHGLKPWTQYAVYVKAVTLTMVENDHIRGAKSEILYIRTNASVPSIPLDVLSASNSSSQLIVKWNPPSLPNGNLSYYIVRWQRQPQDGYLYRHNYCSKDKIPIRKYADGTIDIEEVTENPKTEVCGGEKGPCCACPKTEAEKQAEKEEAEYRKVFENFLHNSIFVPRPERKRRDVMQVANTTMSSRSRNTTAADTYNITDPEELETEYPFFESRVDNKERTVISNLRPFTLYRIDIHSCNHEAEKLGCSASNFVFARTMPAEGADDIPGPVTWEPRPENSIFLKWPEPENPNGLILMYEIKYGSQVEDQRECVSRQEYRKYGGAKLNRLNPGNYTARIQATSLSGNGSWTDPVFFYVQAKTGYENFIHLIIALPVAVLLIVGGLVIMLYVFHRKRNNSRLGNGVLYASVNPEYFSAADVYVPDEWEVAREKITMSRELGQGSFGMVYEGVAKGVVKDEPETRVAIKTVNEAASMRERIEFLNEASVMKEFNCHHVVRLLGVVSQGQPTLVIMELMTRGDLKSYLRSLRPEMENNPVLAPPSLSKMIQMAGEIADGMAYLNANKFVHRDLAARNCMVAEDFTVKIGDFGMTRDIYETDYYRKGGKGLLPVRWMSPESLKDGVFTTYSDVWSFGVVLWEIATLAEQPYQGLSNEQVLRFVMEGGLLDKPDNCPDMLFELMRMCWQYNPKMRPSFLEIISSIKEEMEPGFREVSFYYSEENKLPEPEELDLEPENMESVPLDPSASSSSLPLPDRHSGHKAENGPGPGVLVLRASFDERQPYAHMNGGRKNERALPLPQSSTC", "assay": "Example B-1: IGF-1R Assay (PC3 cells, IGF1 stimulation, AlphaLISA)", "type": "cell-based", "settings": "200 ng/mL IGF1 stimulation, read-out: Biological Activity against IGF-1R IC50", "outline": "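Readout is AlphaLISA signal from lysed PC3 cells, expressed as % inhibition versus vehicle and EC80 controls and banded by IC50. Before lysis, the cells were starved of serum for 2 h, exposed to 3× serially diluted compound for 2 h, and stimulated for 30 min with 200 ng/mL IGF1 (final).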", "units": {"IC50": "nM"}}
{"smiles": "COc1cc(Nc2nccc(Nc3cnc4c(F)cccc4c3)n2)ccc1OCCCN1CCCCC1", "note": "[Compound 96, 4-(8-fluoro-3-quinolylamino)-2-[3-methoxy-4-(3-piperidinopropoxy)phenylamino]pyrimidine]", "IC50": "≤ 500"}
{"smiles": "COc1cc(Nc2nccc(Nc3cnc4cc(F)ccc4c3)n2)ccc1OCCCN1CCCCC1", "note": "[Compound 97, 4-(7-fluoro-3-quinolylamino)-2-[3-methoxy-4-(3-piperidinopropoxy)phenylamino]pyrimidine]", "IC50": "≤ 500"}
{"smiles": "COc1cc(Nc2nccc(Nc3cnc4cc(C)ccc4c3)n2)ccc1OCCCN1CCCCC1", "note": "[Compound 98, 2-[3-methoxy-4-(3-piperidinopropoxy)phenylamino]-4-(7-methyl-3-quinolylamino)pyrimidine]", "IC50": "≤ 500"}
{"smiles": "COc1cc(Nc2nccc(Nc3cnc4c(C)cccc4c3)n2)ccc1OCCCN1CCCCC1", "note": "[Compound 99, 2-[3-methoxy-4-(3-piperidinopropoxy)phenylamino]-4-(8-methyl-3-quinolylamino)pyrimidine]", "IC50": "≤ 500"}
{"smiles": "COc1cc(Nc2nccc(Nc3cnc4c(c3)OCC(C)O4)n2)ccc1OCCCN1CCCCC1", "note": "(stereo not drawn) [Compound 101, 2-[3-methoxy-4-(3-piperidinopropoxy)phenylamino]-4-(3-methyl-2,3-dihydro-1,4-dioxa-5-aza-7-naphthylamino)pyrimidine]", "IC50": "≤ 500"}
{"smiles": "COc1cc(Nc2nccc(Nc3cnc4ccc(C5CC5)cc4c3)n2)ccc1OCCCN1CCCCC1", "note": "[Compound 102, 4-(6-cyclopropyl-3-quinolylamino)-2-[3-methoxy-4-(3-piperidinopropoxy)phenylamino]pyrimidine]", "IC50": "≤ 500"}
{"smiles": "COc1cc(Nc2nccc(Nc3cnc4ccc(C5CC5)cc4c3)n2)ccc1OCCCN1CCOCC1", "note": "[Compound 103, 4-(6-cyclopropyl-3-quinolylamino)-2-[3-methoxy-4-(3-morpholinopropoxy)phenylamino]pyrimidine]", "IC50": "≤ 500"}
{"smiles": "CCc1ccc2ncc(Nc3ccnc(Nc4ccc(OCCCN5CCOCC5)c(OC)c4)n3)cc2c1", "note": "[Compound 104, 4-(6-ethyl-3-quinolylamino)-2-[3-methoxy-4-(3-morpholinopropoxy)phenylamino]pyrimidine]", "IC50": "≤ 500"}
{"smiles": "C[C@@H]1COc2ncc(Nc3ccnc(Nc4ccc(OCCCN5CCOCC5)cc4)n3)cc2O1", "note": "[Compound 105, 4-[(R)-2-methyl-2,3-dihydro-1,4-dioxa-5-aza-7-naphthylamino]-2-[p-(3-morpholinopropoxy)phenylamino]pyrimidine]", "IC50": "≤ 500"}
{"smiles": "C[C@H]1COc2ncc(Nc3ccnc(Nc4ccc(OCCCN5CCOCC5)cc4)n3)cc2O1", "note": "[Compound 106, 4-[(S)-2-methyl-2,3-dihydro-1,4-dioxa-5-aza-7-naphthylamino]-2-[p-(3-morpholinopropoxy)phenylamino]pyrimidine]", "IC50": "500 to 2000"}
{"smiles": "COc1cc(Nc2nccc(Nc3cnc4cc(C5CC5)ccc4c3)n2)ccc1OCCCN1CCCCC1", "note": "[Compound 107, 4-(7-cyclopropyl-3-quinolylamino)-2-[3-methoxy-4-(3-piperidinopropoxy)phenylamino]pyrimidine]", "IC50": "≤ 500"}
{"smiles": "COc1cc(Nc2nccc(Nc3cc4ccccc4nc3OC)n2)ccc1OCCCN1CCCCC1", "note": "[Compound 108, 2-[3-methoxy-4-(3-piperidinopropoxy)phenylamino]-4-(2-methoxy-3-quinolylamino)pyrimidine]", "IC50": "≤ 500"}
{"smiles": "COc1cc(Nc2nccc(Nc3cc4ccc(Cl)cc4[nH]c3=O)n2)ccc1O[C@H]1C[C@H](N(C)C)C1", "note": "[Compound 110, 7-chloro-3-(2-{3-methoxy-4-[(1r,3r)-3-(dimethylamino)cyclobutoxy]phenyl-amino}-4-pyrimidinylamino)-1,2-dihydro-2-quinolinone]", "IC50": "≤ 500"}
{"smiles": "COc1cc(Nc2nccc(Nc3cc4cc(Br)ccc4[nH]c3=O)n2)ccc1O[C@H]1C[C@H](N(C)C)C1", "note": "[Compound 111]", "IC50": "≤ 500"}
{"smiles": "COc1cc(Nc2nccc(Nc3cc4cccc(Cl)c4[nH]c3=O)n2)ccc1O[C@H]1C[C@H](N(C)C)C1", "note": "[Compound 112, 8-chloro-3-(2-{3-methoxy-4-[(1r,3r)-3-(dimethylamino)cyclobutoxy]phenyl-amino}-4-pyrimidinylamino)-1,2-dihydro-2-quinolinone]", "IC50": "≤ 500"}
